For test [1], the target named is T1, Caspase-2 (Homo sapiens, UniProt P42575).
T1 construct: the Caspase-2 and Caspase-3 are human recombinant active enzymes; purchased Enzo Life ALX-201-057-U100
T1 sequence (P42575 170-325 limits assumed): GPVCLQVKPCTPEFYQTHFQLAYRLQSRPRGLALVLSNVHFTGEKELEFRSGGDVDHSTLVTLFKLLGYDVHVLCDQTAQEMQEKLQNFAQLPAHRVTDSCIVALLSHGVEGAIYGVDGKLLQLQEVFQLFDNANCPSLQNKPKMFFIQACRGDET
T1 sequence (P42575 348-452 limits assumed): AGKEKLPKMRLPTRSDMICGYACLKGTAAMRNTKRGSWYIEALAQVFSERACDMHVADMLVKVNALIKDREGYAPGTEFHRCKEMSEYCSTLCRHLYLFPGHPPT
In words: Caspase-2 inhibition assay (in vitro), kinact/KI by continuous method. Format: biochemical. To be noted: for kinact/KI: human recombinant Caspase-2 0.1 nM, substrate Ac-VDVAD-AMC, 37° C., read-out: Inactivation constant kinact/KI Caspase-2 (converted); for times more efficient to inactivate Caspase-2 than to inactivate Caspase-3 (selectivity): ratio of kinact/KI Caspase-2 versus Caspase-3. The source says:
(§1) The efficiency of the compound 2 of the invention to inhibit Caspase-2 and Caspase-3 has been evaluated by using the below explained protocol.
(§2) The efficiency of the comparative compound Δ2Me-TRP601, that is an already known group II Caspase inhibitor (inhibitor of Caspase-2, Caspase-3 and Caspase-7), has been assessed by a similar protocol described in Chauvier et al., 2011 Cell Death Dis 2011, 2:e203.
In this example, the Caspase-2 and Caspase-3 are human recombinant active enzymes that are respectively provided by Enzo Life® (ALX-201-057-U100) and R&D Systems® (707-C3-010/CF).
Caspase-2 is used at a final concentration of 0.1 nM in a “Caspase-2 buffer” containing 20 mM HEPES (pH 7.4), 5 mM DTT, 2 mM EDTA, 0.1% CHAPS and 800 mM succinate. Caspase-3 is used at a final concentration of 0.5 nM in a “Caspase-3 buffer” containing 20 mM HEPES (pH 7.4), 0.1% CHAPS, 5 mM DTT, and 2 mM EDTA.
The peptide substrates used for the enzymatic activity measurements are Ac-DEVD-AMC and Ac-VDVAD-AMC commercialized by EnzoLife® (respectively referenced ALX-260-031-M005 and ALX-260-060-M005). They are fluorogenic due to the presence of their AMC (7-amino-4-methylcoumarin) end group. The releasing of AMC enables to follow the enzymatic activity in fluorescence unit RFU over time in a 96-wells microplate (COSTAR 3915).
The fluorescence values are measured at 37° C. with a spectrofluorometer with a microplate reader BMG FLUOstar OPTIMA. This apparatus is driven by the software Biolise® and is equipped with thermoelectric cooling device by Peltier effect. The mathematic analysis of the experimental data are done with the software Kaleidagraph@.
The inhibitory properties of the tested compounds are evaluated by the determination of the kinact/KI ratio regarding either Caspase-2 or Caspase-3 wherein: • kinact is the maximal inactivation rate constant, and • KI is the dissociation constant according to:
Said ratio is measured according to the continuous method (Allison R D. Curr Protoc Protein Sci. 2001 May; Chapter 3:Unit 3.5.; Chauvier et al., 2011 Cell Death Dis 2:e203; Tan et al., J Med Chem 2015, […]).
Briefly, Caspases activities were determined by monitoring the hydrolysis of fluorogenic substrates (λexc=355 nm, λem=460 nm) as a function of time, in the presence of untreated Caspases (control) or Caspases that had been incubated with a test compound, for 30 min minimum at 37° C. using a BMG Fluostar microplate reader (black 96-well microplates) and the initial velocity (V0) was determined from the linear portion of the progress curve.
Substrates and compounds were previously dissolved in DMSO at 10 mM, with the final solvent concentration kept at lower 4% (v/v). V0, relative velocities, KM and IC50 were determined from experimental datas using Mars datas Analysis 2.0 and Kaleidagraph softwares.
Inhibitor binding affinity (dissociation constant, KI) and first-order rate constant (k3) parameters were determined for Caspase-2 and Caspase-3 using the progress curve method. The ratio k3/KI was obtained by fitting the experimental data to the equations (F.U., fluorescence unit): […]
A continuous method of determination of the kinact/KI ratio was used for evaluating the inhibitory activity of the tested compounds against Caspase-2 and Caspase-3.
The reaction mixture is prepared by letting the enzyme and the buffer incubate at 37° C. […]
(§3) The activities of the enzyme are measured between 45 and 60 minutes. […]

Test [2] concerns the target T2, Caspase-3 (Homo sapiens, UniProt P42574).
T2 construct: the Caspase-2 and Caspase-3 are human recombinant active enzymes; purchased R&D Systems 707-C3-010/CF
T2 sequence (P42574 29-175 limits assumed): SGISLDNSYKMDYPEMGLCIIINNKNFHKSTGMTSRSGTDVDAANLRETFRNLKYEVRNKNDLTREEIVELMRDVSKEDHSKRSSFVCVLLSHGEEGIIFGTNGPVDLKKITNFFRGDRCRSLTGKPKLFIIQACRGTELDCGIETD
T2 sequence (P42574 176-277 limits assumed): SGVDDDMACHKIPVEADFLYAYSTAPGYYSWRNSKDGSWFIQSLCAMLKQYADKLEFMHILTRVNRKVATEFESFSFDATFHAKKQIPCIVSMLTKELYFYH
In words: Caspase-3 inhibition assay (in vitro), kinact/KI by continuous method. The following applies: human recombinant Caspase-3 0.5 nM, substrate Ac-DEVD-AMC, 37° C.; read-out: Inactivation constant kinact/KI Caspase-3 (converted). Format: biochemical.
Excerpt: as §1, §2
In this example, the Caspase-2 and Caspase-3 are human recombinant active enzymes that are respectively provided by Enzo Life® (ALX-201-057-U100) and R&D Systems® (707-C3-010/CF). […]
The peptide substrates used for the enzymatic activity measurements are Ac-DEVD-AMC and Ac-VDVAD-AMC commercialized by EnzoLife® (respectively referenced ALX-260-031-M005 and ALX-260-060-M005). […] The releasing of AMC enables to follow the enzymatic activity in fluorescence unit RFU over time in a 96-wells microplate (COSTAR 3915).
The fluorescence values are measured at 37° C. with a spectrofluorometer with a microplate reader BMG FLUOstar OPTIMA. […]
The inhibitory properties of the tested compounds are evaluated by the determination of the kinact/KI ratio regarding either Caspase-2 or Caspase-3 wherein: • kinact is the maximal inactivation rate constant, and • KI is the dissociation constant according to: […]
as §3

For test [3], the system named is HeLa cells. In words: Protection against cellular death induced by vincristine, propidium iodide flow cytometry. Type of test: cell-based, human. The following applies: compound at 3, 10, 30 and 60 μM added 1 hour before 20 nM vincristine, 48 hours. On the procedure:
In this example, the protective effect of the compound 2 of the invention against cellular death induced by vincristine (a vinca alkaloid) is tested using a well-known flow cytometry cell death assay based on propidium iodide staining.
To evaluate the protecting effect of compound 2, a Caspase-dependent cellular model is used.
Human HeLa cells are used in this model. HeLa cells (cervical cancer cell line) were obtained from American Type Cell Collection (ATCC), and were cultured in Dulbecco's Modified Eagle Medium (DMEM, High Glucose, GlutaMAX™, Pyruvate) (Gibco, Life technologies), supplemented with 10% FCS and antibiotics (Gibco, Life technologies).
Human HeLa cells are treated with Vincristine (Sigma Aldrich) solubilized in water at 5 mM. Vincristine works partly by binding to the tubulin protein, stopping the cell from separating its chromosomes during the metaphase; the cell then undergoes apoptosis.
Propidium iodide (PI) (Sigma Aldrich) is used to evaluate plasma membrane permeabilisation, a sign of cell death. […]
The cells are then analyzed by flow cytometry with an excitation of 561 nm.
Fluorescence-Activated Cell Sorting was performed using a FACSCalibur cytometer (Becton Dickinson, San Jose, Calif.). For each sample, data from 5,000 Cells were registered and analyzed with the CellQuest Pro™ software (Becton Dickinson). […]
Background: A flow cytometer gives signals particle by particle.

The structures appear in SMILES notation. Residues, ends and D or L forms follow the SMILES beside them. *: point of attachment. X1 = O=C(O)C[C@H](N*)C(=O)COc1c(F)cccc1F; Quinaldoyl = O=C(c1ccc2ccccc2n1)*

For `CC(C)[C@H](NC(=O)c1ccc2ccccc2n1)C(=O)N[C@@H](CC(=O)O)C(=O)N[C@H](C(=O)N[C@@H](C)C(=O)N[C@@H](CC(=O)O)C(=O)COc1c(F)cccc1F)C(C)C` [Δ2Me-TRP-601, reference compound] (Quinaldoyl-VDVA-X1), the kinact/KI in test [1] is 1.57e+06 M⁻¹ s⁻¹; in test [2] it was 1.92e+06 M⁻¹ s⁻¹. In addition, the “times more efficient to inactivate Caspase-2 than to inactivate Caspase-3 (selectivity)” value in test [1] is recorded as “does not exhibit this selectivity”.

For the compound `Cc1ccc2c(c1)CCN(C(=O)[C@@H](NC(=O)[C@H](CC(=O)O)NC(=O)[C@@H](NC(=O)c1ccc3ccccc3n1)C(C)C)C(C)C)[C@@H]2C(=O)N[C@@H](CC(=O)O)C(=O)COc1c(F)cccc1F` [Compound 2, (S)-3-((S)-2-((S)-2-((S)-3-carboxy-2-((S)-3-methyl-2-(quinoline-2-carboxamido)butanamido)propanamido)-3-methylbutanoyl)-6-methyl-1,2,3,4-tetrahydroisoquinoline-1-carboxamido)-5-(2,6-difluorophenoxy)-4-oxopentanoic acid], the “efficiency to inhibit Caspase-2 (in words)” value in test [1] (compared with Δ2Me-TRP601) is given as “as efficient as Δ2Me-TRP601 to inhibit Caspase-2”. In test [1], the kinact/KI was 1.76e+06 M⁻¹ s⁻¹ and the “times more efficient to inactivate Caspase-2 than to inactivate Caspase-3 (selectivity)” value was 57 times. Further, the “protection of cells against apoptotic death induced by vincristine (percentage of propidium iodide positive cells)” value in test [3] is reported as “protects the cells against apoptotic death induced by vincristine in a dose-dependent manner”. Also, the kinact/KI in test [2] is 30500 M⁻¹ s⁻¹.

Source of the values: patent US10961219B2, “Derivatives and their use as selective inhibitors of caspase-2” (priority 2016, dated 2021).
